Among the data in paper PMC7489219 (Molecular Brain, 2020) are inhibition values, retold here.

Each structure is given as a SMILES string. Where a name gives a salt, the structure may show the parent alone.

In the experiment the test system is T1, primary mouse cortical neurons.
T1 construct: primary cortical neurons, DIV 10
The experiment can be described thus: cells. Set-up: Protection from NMDA-induced (30 uM, 10 min) neuronal death; Hoechst nuclear morphology by automated microscopy. The following applies: Cortical neurone, 20 h, read-out: % inhibition, inhibition of NMDA-induced cell death (protection score), 30 min pre-treatment. The gist of the method:
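On DIV 10, primary mouse cortical neurons were given compound at 10 μM for 30 min at 37 °C, then 30 μM NMDA for 10 min, washed, and kept 20 h with compound. Dead cells were scored by nuclear morphology, and % protection was derived from survival relative to vehicle + NMDA and untreated controls.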

As usually defined, the inhibition is the drop in the measured response relative to a control, in per cent. For the compound `NC(=O)N/N=C/c1ccc([N+](=O)[O-])o1` [Nitrofurazone (Nitrofural)], the inhibition at 10 µM was 29.8%.

As for `Nc1nc(Cl)nc2c1ncn2[C@@H]1O[C@H](CO)[C@@H](O)[C@@H]1F` [Clofarabine], the inhibition at 10 µM is -10.2%.

As to `O=c1c2ccccc2nc2n1CCc1c-2[nH]c2ccccc12` [Rutaecarpine (Rutecarpine)], the inhibition at 10 µM was determined as 5.35%.

On to `O=C(/C=C/c1ccc(O)cc1)c1ccc(O)cc1O` [Isoliquiritigenin], for which the inhibition at 10 µM came to 5.56%.

`CCn1cc(C(=O)O)c(=O)c2cc(F)c(N3CCNCC3)cc21` [Norfloxacin (Norxacin)]: the inhibition at 10 µM amounted to 2.34%.

Consider `COc1ccc(-c2cc(=O)c3c(O)cc(O[C@@H]4O[C@H](CO[C@@H]5O[C@@H](C)[C@H](O)[C@@H](O)[C@H]5O)[C@@H](O)[C@H](O)[C@H]4O)cc3o2)cc1O` [Diosmin], for which the inhibition at 10 µM is -0.0881%.

For the compound `CCC(=O)OCC(=O)[C@@]1(OC(=O)CC)[C@@H](C)C[C@H]2[C@@H]3CCC4=CC(=O)C=C[C@]4(C)[C@@]3(F)[C@@H](O)C[C@@]21C` [Betamethasone dipropionate], the inhibition at 10 µM is 6.47%.

In the case of `COC(=O)C1=C(C)NC(C)=C(C(=O)OCC(C)C)C1c1ccccc1[N+](=O)[O-]` (stereo not drawn) [Nisoldipine (Sular)], the inhibition at 10 µM was -2.86%.

Consider `Nc1nc(F)nc2c1ncn2[C@@H]1O[C@H](COP(=O)(O)O)[C@@H](O)[C@@H]1O` [Fludarabine Phosphate (Fludara)], for which the inhibition at 10 µM was -10.8%.

Regarding `OC(Cn1cncn1)(Cn1cncn1)c1ccc(F)cc1F` [Fluconazole], the inhibition at 10 µM came out at 6.24%.

Turning to `C[C@]12CC[C@H]3[C@@H](CC[C@@]45O[C@@H]4C(O)=C(C#N)C[C@]35C)[C@@H]1CC[C@@H]2O` [Trilostane], the inhibition at 10 µM stood at 4.15%.

`C[C@@H]1O[C@@H](Oc2c(-c3cc(O)c(O)c(O)c3)oc3cc(O)cc(O)c3c2=O)[C@H](O)[C@H](O)[C@H]1O` [Myricitrin (Myricitrine)]: the inhibition at 10 µM is -2.22%.

On to `CC[C@H]1OC(=O)[C@H](C)[C@@H](O[C@H]2C[C@@](C)(OC)[C@@H](O)[C@H](C)O2)[C@H](C)[C@@H](O[C@@H]2O[C@H](C)C[C@H](N(C)C)[C@H]2O)[C@](C)(O)C[C@@H](C)C(=O)[C@H](C)[C@@H](O)[C@]1(C)O` [Erythromycin (E-Mycin)], for which the inhibition at 10 µM stood at 29.4%.

In the case of `CC(=O)OCC(=O)[C@@]1(O)CC[C@H]2[C@@H]3CCC4=CC(=O)CC[C@]4(C)[C@H]3C(=O)C[C@@]21C` [Cortisone acetate (Cortone)], the inhibition at 10 µM was -0.736%.

In the case of `O=c1oc2cc(O)ccc2s1` [Tioxolone], the inhibition at 10 µM is -0.329%.

In the case of `NCCS(=O)(=O)O` [Taurine], the inhibition at 10 µM is 8.63%.

On to `C[C@@H]1C/C=C/C=C/C=C/C=C/[C@H](O[C@@H]2O[C@H](C)[C@@H](O)[C@H](N)[C@@H]2O)C[C@@H]2O[C@](O)(C[C@@H](O)C[C@H]3O[C@@H]3/C=C/C(=O)O1)C[C@H](O)[C@H]2C(=O)O` [Natamycin (Pimaricin)], for which the inhibition at 10 µM was -0.639%.

Take `CCC(C)(C)C(=O)O[C@H]1C[C@@H](C)C=C2C=C[C@H](C)[C@H](CC[C@@H]3C[C@@H](O)CC(=O)O3)[C@H]21` [Simvastatin (Zocor)]: the inhibition at 10 µM was determined as 2.21%.

Consider `CO[C@H]1/C=C/O[C@@]2(C)Oc3c(C)c(O)c4c(O)c(c5c(c4c3C2=O)=NC2(CCN(CC(C)C)CC2)N=5)NC(=O)/C(C)=C\C=C\[C@H](C)[C@H](O)[C@@H](C)[C@@H](O)[C@@H](C)[C@H](OC(C)=O)[C@@H]1C` [Rifabutin (Mycobutin)], for which the inhibition at 10 µM is -2.35%.

Turning to `Nc1nc(Cl)nc2c1ncn2[C@H]1C[C@H](O)[C@@H](CO)O1` [Cladribine], the inhibition at 10 µM was -1.65%.

Take `O=c1cc(-c2ccc(O)cc2)oc2cc(O)cc(O)c12` [Apigenin]: the inhibition at 10 µM was -0.752%.

In the case of `CC(C)NCC(O)COc1ccc(COCCOC(C)C)cc1` (stereo not drawn) [Bisoprolol], the inhibition at 10 µM was determined as 10%.

Consider `CCCc1nn(C)c2c(=O)[nH]c(-c3cc(S(=O)(=O)N4CCN(C)CC4)ccc3OCC)nc12` [Sildenafil citrate], for which the inhibition at 10 µM stood at 4.4%.

On to `C=C1c2cccc(O)c2C(O)=C2C(=O)[C@]3(O)C(O)=C(C(N)=O)C(=O)[C@@H](N(C)C)[C@@H]3[C@@H](O)[C@H]12` [Methacycline hydrochloride (Physiomycine)], for which the inhibition at 10 µM amounted to 13.5%.

On to `Cc1cc(C(C)(C)C)c(O)c(C)c1CC1=NCCN1` [Oxymetazoline hydrochloride], for which the inhibition at 10 µM was -9.52%.

Regarding `Oc1ccc(/C=C/c2cc(O)cc(O)c2)cc1` [Resveratrol], the inhibition at 10 µM came out at 22.8%.

Turning to `Nc1ccc(O)c(C(=O)O)c1` [Mesalamine (Lialda)], the inhibition at 10 µM is 21.8%.

As to `CN(C)CCOC(c1ccccc1)c1ccccc1` [Diphenhydramine HCl (Benadryl)], the inhibition at 10 µM was 1.97%.

As for `O=C1CCc2cc(OCCCCc3nnnn3C3CCCCC3)ccc2N1` [Cilostazol], the inhibition at 10 µM was -13.8%.

As for `O=C(O)/C=C/c1ccc(O)c(O)c1` [Caffeic acid], the inhibition at 10 µM is -2.37%.

On to `CC(C)(O)[C@H]1CC[C@@](C)([C@H]2[C@@H](O)C[C@@]3(C)[C@@H]4C[C@H](O[C@@H]5O[C@H](CO)[C@@H](O)[C@H](O)[C@H]5O)[C@H]5C(C)(C)[C@@H](O[C@@H]6OC[C@@H](O)[C@H](O)[C@H]6O)CC[C@@]56C[C@@]46CC[C@]23C)O1` [Astragaloside A], for which the inhibition at 10 µM came out at 0.89%.

For `C=C1C(=O)O[C@H]2[C@H]1CC/C(C)=C/CC[C@@]1(C)O[C@@H]21` [Parthenolide ((-)-Parthenolide)], the inhibition at 10 µM is -3.83%.

With `CC1(C)O[C@@H]2C[C@H]3[C@@H]4CCC5=CC(=O)C=C[C@]5(C)[C@H]4[C@@H](O)C[C@]3(C)[C@]2(C(=O)CO)O1` [Desonide], the inhibition at 10 µM is 9.64%.

Regarding `CCCC1O[C@@H]2C[C@H]3[C@@H]4CCC5=CC(=O)C=C[C@]5(C)[C@H]4[C@@H](O)C[C@]3(C)[C@]2(C(=O)CO)O1` (stereo partly drawn) [Budesonide], the inhibition at 10 µM was -9.49%.

Consider `N#Cc1ccc(C(c2ccc(C#N)cc2)n2cncn2)cc1` [Letrozole], for which the inhibition at 10 µM amounted to 0.34%.

As to `CC1(C)CCC[C@]2(C)[C@H]3CC(=O)O[C@]3(C)CC[C@@H]12` [Sclareolide (Norambreinolide)], the inhibition at 10 µM stood at 28.8%.

Turning to `C[C@]12CCC(=O)C=C1CC[C@@H]1[C@@H]2[C@@H](O)C[C@@]2(C)[C@H]1CC[C@]2(O)C(=O)CO` [Hydrocortisone (Cortisol)], the inhibition at 10 µM came to 4.6%.

As for `CO[C@H]1/C=C/O[C@@]2(C)Oc3c(C)c(O)c4c(O)c(c5c(nc6cc(C)ccn65)c4c3C2=O)NC(=O)/C(C)=C\C=C\[C@H](C)[C@H](O)[C@@H](C)[C@@H](O)[C@@H](C)[C@H](OC(C)=O)[C@@H]1C` [Rifaximin (Xifaxan)], the inhibition at 10 µM was found to be 1.93%.

`CN(C)CCOc1ccc(/C(=C(/CCCl)c2ccccc2)c2ccccc2)cc1` [Toremifene Citrate (Fareston, Acapodene)]: the inhibition at 10 µM is -2.81%.

As to `C[C@H]1[C@H](NC(=O)/C(=N\OC(C)(C)C(=O)O)c2csc(N)n2)C(=O)N1S(=O)(=O)O` [Aztreonam (Azactam, Cayston)], the inhibition at 10 µM is -1.22%.

With `Cc1cc(O)c2c(c1)C(=O)c1cc(O)cc(O)c1C2=O` [Emodin], the inhibition at 10 µM is -4.08%.

With `COc1cc(/C=C/C(=O)O)ccc1O` [Fumalic acid (Ferulic acid)], the inhibition at 10 µM is -0.686%.

For `C#Cc1cccc(Nc2ncnc3cc(OCCOC)c(OCCO)cc23)c1` [OSI-420 (Desmethyl Erlotinib)], the inhibition at 10 µM is -0.167%.

For `OCc1c[nH]c2ccccc12` [Indole-3-carbinol], the inhibition at 10 µM was -2.03%.

Take `CCOC(=O)[C@H](CCc1ccccc1)N[C@@H](C)C(=O)N1CCC[C@H]1C(=O)O` [Enalapril maleate (Vasotec)]: the inhibition at 10 µM was found to be 54.5%.

Turning to `NC(CO)C(=O)NNCc1ccc(O)c(O)c1O` (stereo not drawn) [Benserazide], the inhibition at 10 µM was found to be 6.78%.

Turning to `C#Cc1cccc(Nc2ncnc3cc(OCCOC)c(OCCOC)cc23)c1` [Erlotinib HCl], the inhibition at 10 µM was found to be 22.9%.

Take `C[C@H](N[C@@H](CCc1ccccc1)C(=O)O)C(=O)N1CCC[C@H]1C(=O)O` [Enalaprilat dihydrate]: the inhibition at 10 µM is -4.34%.

Turning to `NC(=O)c1cccnc1` [Nicotinamide (Niacinamide)], the inhibition at 10 µM is -2.77%.

Consider `Nc1ccc(S(=O)(=O)Nc2ncccn2)cc1` [Sulfadiazine], for which the inhibition at 10 µM is 17.4%.

For `COc1cc(C(C)=O)ccc1O` [Apocynin (Acetovanillone)], the inhibition at 10 µM was -0.991%.

Take `S=c1[nH]cnc2nc[nH]c12` [Mercaptopurine]: the inhibition at 10 µM is -8.52%.

In the case of `COCCOC(=O)C1=C(C)NC(C)=C(C(=O)OC/C=C/c2ccccc2)C1c1cccc([N+](=O)[O-])c1` (stereo not drawn) [Cilnidipine], the inhibition at 10 µM is -16%.

Consider `CN/C(=C\[N+](=O)[O-])NCCSCc1ccc(CN(C)C)o1` [Ranitidine (Zantac)], for which the inhibition at 10 µM worked out at 1.37%.

On to `O=C1N=C(O)NC1(c1ccccc1)c1ccccc1` [Phenytoin sodium (Dilantin)], for which the inhibition at 10 µM was found to be 3.12%.

Regarding `COc1ccccc1OCC(O)COC(N)=O` (stereo not drawn) [Methocarbamol (Robaxin)], the inhibition at 10 µM is -0.235%.

On to `O=P(O)(O)C(O)(Cn1ccnc1)P(=O)(O)O` [Zoledronic Acid (Zoledronate)], for which the inhibition at 10 µM is -0.211%.

`C[C@H]([C@H](O)CCC(C)(C)O)[C@H]1CC[C@@]2(O)C3=CC(=O)[C@@H]4C[C@@H](O)[C@@H](O)C[C@]4(C)[C@H]3CC[C@]12C` [Ecdysone]: the inhibition at 10 µM amounted to 0.187%.

As to `NNC(=O)c1ccncc1` [Isoniazid (Tubizid)], the inhibition at 10 µM is 45.6%.

As to `OC[C@H]1O[C@@H](OCCc2ccc(O)cc2)[C@H](O)[C@@H](O)[C@@H]1O` [Salidroside (Rhodioloside)], the inhibition at 10 µM amounted to 11.2%.
